From ChEMBL document CHEMBL1201862, “PubChem BioAssay data set” (2004)
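Grown in 96-well plates, cells were treated for 48 hours with each compound at five concentrations. Insufficient inhibition: endpoint recorded as highest concentration tested. GI50: concentration for 50% inhibition of growth.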 Activity calls are given as the source filed them. Rule as the data show it: active = GI50 up to about 1.1 µM and inactive = higher. Where a SMILES comes first, the peptide text is derived from it. The star is where a group is joined. Cbz = O=C(OCc1ccccc1)*; Boc = CC(C)(C)OC(=O)*; tBu = CC(C)(C)*

Tests used:
Assay in all cases: NCI-60 cell line screen, 48 h
[1] = test system: 786-0
[2] = test system: CAKI-1
[3] = test system: DU-145
[4] = test system: EKVX
[5] = test system: HCT-15
[6] = test system: IGROV-1
[7] = test system: KM12
[8] = test system: LOX IMVI
[9] = test system: MCF7
[10] = test system: Malme-3M
[11] = test system: PC-3
[12] = test system: RPMI-8226
[13] = test system: SF-268
[14] = test system: SK-MEL-28
[15] = test system: SK-MEL-2
[16] = test system: SK-MEL-5
[17] = test system: SNB-19
[18] = test system: T47D
[19] = test system: U-251
[20] = test system: UO-31

Structure (SMILES)	GI50 [1]	GI50 [2]	GI50 [3]	GI50 [4]	GI50 [5] [µM]	GI50 [6]	GI50 [7]	GI50 [8]	GI50 [9]	GI50 [10]	GI50 [11]	GI50 [12]	GI50 [13]	GI50 [14]	GI50 [15]	GI50 [16]	GI50 [17]	GI50 [18]	GI50 [19]	GI50 [20]
C=C1CC(O)C2C(=C)C(=O)OC2C2C(C)C(=O)CC12 (stereo not drawn)	> 10 µM (inactive)	4.57 µM (inactive)	15.3 µM (inactive)	15.4 µM (inactive)	4.82	18.4 µM (inactive)	24.7 µM (inactive)	20 µM (inactive)	9.4 µM (inactive)	12 µM (inactive)	36.6 µM (inactive)	14 µM (inactive)	22.2 µM (inactive)	14.3 µM (inactive)	18.9 µM (inactive)	20.7 µM (inactive)	18.8 µM (inactive)	16.9 µM (inactive)	23 µM (inactive)	14.7 µM (inactive)
OC1(c2ccc(Cl)cc2)c2ccccc2C2=NCc3ccccc3CN21 (stereo not drawn)	5.45 µM (inactive)	12.3 µM (inactive)	17.9 µM (inactive)	5.48 µM (inactive)	7.14	3.75 µM (inactive)	4.7 µM (inactive)	9.2 µM (inactive)	4.8 µM (inactive)	13.9 µM (inactive)	4.74 µM (inactive)	> 21.3 µM (inactive)	12.4 µM (inactive)	2.75 µM (inactive)	1.2 µM (inactive)	13.2 µM (inactive)	3.51 µM (inactive)	23.3 µM (inactive)	7.24 µM (inactive)	7.98 µM (inactive)
O=C(O)c1ccc(SSc2ccc(C(=O)O)cn2)nc1	> 100 µM (inactive)	> 100 µM (inactive)	> 100 µM (inactive)	> 100 µM (inactive)	> 100	> 100 µM (inactive)	> 100 µM (inactive)	> 100 µM (inactive)	> 100 µM (inactive)	> 100 µM (inactive)	> 100 µM (inactive)	> 100 µM (inactive)	> 100 µM (inactive)	> 100 µM (inactive)	> 100 µM (inactive)	> 100 µM (inactive)	> 100 µM (inactive)	> 100 µM (inactive)	> 100 µM (inactive)	
CC1=NN(c2ccccc2)C(=O)/C1=C1\SC(c2ccccc2)(c2ccccc2)c2ccccc21	> 100 µM (inactive)	> 100 µM (inactive)	> 100 µM (inactive)	> 100 µM (inactive)	> 100	> 100 µM (inactive)	> 100 µM (inactive)	> 100 µM (inactive)	> 100 µM (inactive)	> 100 µM (inactive)	> 100 µM (inactive)	> 100 µM (inactive)	> 100 µM (inactive)	> 100 µM (inactive)	> 100 µM (inactive)	> 100 µM (inactive)	> 100 µM (inactive)	> 100 µM (inactive)	3.78 µM (inactive)	> 100 µM (inactive)
COC(=O)C(Cc1ccc2c(c1)CCCC2)Cc1cc2c(cc1C(O)OC)CCC2 (stereo not drawn)	33.3 µM (inactive)	> 100 µM (inactive)	> 100 µM (inactive)	39.4 µM (inactive)	33.7	> 100 µM (inactive)	44.7 µM (inactive)	30.4 µM (inactive)	29.4 µM (inactive)	38.1 µM (inactive)	19.5 µM (inactive)	27.9 µM (inactive)	49.9 µM (inactive)	55 µM (inactive)	> 100 µM (inactive)	33.4 µM (inactive)	> 100 µM (inactive)	29.3 µM (inactive)	49.4 µM (inactive)	93.8 µM (inactive)
CC(C)=NN/C(=N\c1ccc(Cl)cc1)NS(=O)(=O)c1cc(Cl)c(Oc2ccc([N+](=O)[O-])cc2Cl)c(Cl)c1	> 100 µM (inactive)	> 100 µM (inactive)	> 100 µM (inactive)	29.4 µM (inactive)	> 100	> 100 µM (inactive)	> 100 µM (inactive)	> 100 µM (inactive)	> 100 µM (inactive)	70 µM (inactive)	87.9 µM (inactive)	29.6 µM (inactive)	> 100 µM (inactive)	> 100 µM (inactive)	> 100 µM (inactive)	> 100 µM (inactive)	> 100 µM (inactive)	22.2 µM (inactive)	> 100 µM (inactive)	56.8 µM (inactive)
CSc1ccccc1NC1=NCCO1	> 100 µM (inactive)	> 100 µM (inactive)	> 100 µM (inactive)	> 100 µM (inactive)	> 100	> 100 µM (inactive)	> 100 µM (inactive)	> 100 µM (inactive)	> 100 µM (inactive)	> 100 µM (inactive)	> 100 µM (inactive)	> 100 µM (inactive)	> 100 µM (inactive)	> 100 µM (inactive)	> 100 µM (inactive)	> 100 µM (inactive)	> 100 µM (inactive)	> 100 µM (inactive)	> 100 µM (inactive)	> 100 µM (inactive)
CC(OC(C)(C)C)C(NC(=O)C(CCCCNC(=O)OC(C)(C)C)NC(=O)C(Cc1c[nH]c2ccccc12)NC(=O)C(Cc1ccccc1)NC(=O)OCc1ccccc1)C(=O)NC(Cc1ccccc1)C(=O)O (stereo not drawn) (Cbz-FWK(Boc)T(tBu)F-OH; configuration not given here)	> 100 µM (inactive)	> 100 µM (inactive)	61.1 µM (inactive)	> 100 µM (inactive)	73.6	31 µM (inactive)	43.3 µM (inactive)	29.4 µM (inactive)	31.1 µM (inactive)	> 100 µM (inactive)	34.8 µM (inactive)	43.5 µM (inactive)	45.7 µM (inactive)	57.8 µM (inactive)	41.7 µM (inactive)	1.66 µM (inactive)	37.7 µM (inactive)	28.4 µM (inactive)	37.9 µM (inactive)	> 100 µM (inactive)
O=[N+]([O-])/C(Cl)=C(\Nc1ccccc1)C(Cl)=C(Cl)Cl	27.5 µM (inactive)	48.3 µM (inactive)	36.8 µM (inactive)	39.8 µM (inactive)	25.4	32.4 µM (inactive)	12.9 µM (inactive)	32.9 µM (inactive)	14.3 µM (inactive)	18 µM (inactive)	38.3 µM (inactive)	25.6 µM (inactive)	32.1 µM (inactive)	36.8 µM (inactive)	28.8 µM (inactive)	23.7 µM (inactive)	33.5 µM (inactive)	29.1 µM (inactive)	43.1 µM (inactive)	40.7 µM (inactive)
CN(C)/C=N/c1c2ccccc2nc2ccccc12	5.14 µM (inactive)	18 µM (inactive)	4.83 µM (inactive)	9.46 µM (inactive)	8.13	4.23 µM (inactive)		2.44 µM (inactive)	2.54 µM (inactive)	3.23 µM (inactive)	2.98 µM (inactive)	1.79 µM (inactive)	3.35 µM (inactive)	1.99 µM (inactive)	2.69 µM (inactive)	2.98 µM (inactive)	4.25 µM (inactive)	2.65 µM (inactive)	4.17 µM (inactive)	5.86 µM (inactive)
